Laboratory results taken from patent US10004701B2, “Methods and compositions for treating infection” (UNIVERSITY OF ROCHESTER, priority 2012, dated 2018).
Converted amounts (≈) assume the structure as drawn. Read-outs that look alike come from different tables or passages of the source.

Experiments:
Escherichia coli 8295 [1] = assay: AK assay 96-well format; format: cell-based
[2] = tested on: Klebsiella pneumoniae cKP1; assay: MIC testing; format: cell-based
[3] = tested on: Pseudomonas aeruginosa PA01; assay: MIC testing; format: cell-based
Staphylococcus aureus = assay: MIC testing; format: cell-based
[4] = tested on: Enterobacter cloacae PMD1001; assay: MIC testing; format: cell-based
[5] = tested on: Enterococcus faecium 824-05; assay: MIC testing; format: cell-based; details: 82405
[6] = tested on: Acinetobacter baumannii 98-37-09; assay: MIC testing; format: cell-based; details: 983709; Acinetobacter baumannii 98-37-09; read-out: MIC
Escherichia coli 8295 [7] = assay: MIC testing; format: cell-based
[8] = tested on: Enterobacter cloacae PMD1001; assay: AK assay 96-well format; format: cell-based
[9] = tested on: Klebsiella pneumoniae cKP1; assay: AK assay 96-well format; format: cell-based
[10] = tested on: Pseudomonas aeruginosa PA01; assay: AK assay 96-well format; format: cell-based
E. faecium = assay: AK assay 384-well format, Prestwick library screening; format: cell-based, Enterococcus faecium; details: Enterococcus faecium, 3 h, 50 μM final drug concentration, cutoff for positive-scoring molecules 3-fold increase, read-out: AK-based Prestwick Library Screening Results, E. faecium (increase in extracellular AK activity)
P. aeruginosa = assay: as above; format: cell-based, Pseudomonas aeruginosa; details: for fold induction at 50 µM: Pseudomonas aeruginosa, 3 h, 50 μM final drug concentration, cutoff for positive-scoring molecules 3-fold increase, read-out: AK-based Prestwick Library Screening Results, P. aeruginosa (increase in extracellular AK activity)
K. pneumoniae = assay: as above; format: cell-based, Klebsiella pneumoniae; details: Klebsiella pneumoniae, 3 h, 50 μM final drug concentration, cutoff for positive-scoring molecules 3-fold increase, read-out: AK-based Prestwick Library Screening Results, K. pneumoniae (increase in extracellular AK activity)
E. cloacae = assay: as above; format: cell-based, Enterobacter cloacae; details: Enterobacter cloacae, 3 h, 50 μM final drug concentration, cutoff for positive-scoring molecules 3-fold increase, read-out: AK-based Prestwick Library Screening Results, E. cloacae (increase in extracellular AK activity)
E. coli = assay: as above; format: cell-based, Escherichia coli; details: Escherichia coli, 3 h, 50 μM final drug concentration, cutoff for positive-scoring molecules 3-fold increase, read-out: AK-based Prestwick Library Screening Results, E. coli (increase in extracellular AK activity)
[11] = tested on: S. aureus strain USA300-0114; assay: as above; format: cell-based, Staphylococcus aureus; details: Staphylococcus aureus, USA300, 3 h, 50 μM final drug concentration, cutoff for positive-scoring molecules 3-fold increase, read-out: AK-based Prestwick Library Screening Results, S. aureus (increase in extracellular AK activity)
[12] = tested on: A. baumannii strain 98-37-09; assay: as above; format: cell-based, Acinetobacter baumannii; details: Acinetobacter baumannii, 983709, 3 h, 50 μM final drug concentration, cutoff for positive-scoring molecules 3-fold increase, read-out: AK-based Prestwick Library Screening Results, A. baumannii (increase in extracellular AK activity)
[13] = Klebsiella pneumoniae cKP1, read-out: MIC
[14] = Staphylococcus aureus USA300-0114, read-out: MIC
[15] = Enterococcus faecium 824-05, read-out: MIC

| Structure (SMILES) | Fold increase in AK signal (Escherichia coli 8295 [1]; treatment 0.5×MIC) [fold] | Fold increase in AK signal (Escherichia coli 8295 [1]; treatment 1.0×MIC) [fold] | MIC [3] | MIC (Staphylococcus aureus; Staphylococcus aureus) [µg/mL] | MIC (Staphylococcus aureus; Staphylococcus aureus, USA300) [µg/mL] | MIC ([5]; Enterococcus faecium) [µg/mL] | MIC [6] [µg/mL] | Fold increase in AK signal ([8]; treatment 0.5×MIC) [fold] | Fold increase in AK signal ([8]; treatment 1.0×MIC) [fold] | MIC [2, 13] [µg/mL] | Fold increase in AK signal ([9]; treatment 0.5×MIC) [fold] | Fold increase in AK signal ([9]; treatment 1.0×MIC) [fold] | MIC ([3]; read-out: MIC) [µg/mL] | MIC (Staphylococcus aureus; [14]) [µg/mL] | MIC ([4]; read-out: MIC) [µg/mL] | MIC [5, 15] [µg/mL] | MIC (Escherichia coli 8295 [7]; read-out: MIC) [µg/mL] | further results |
| --- | --- | --- | --- | --- | --- | --- | --- | --- | --- | --- | --- | --- | --- | --- | --- | --- | --- | --- |
| CC1(C)S[C@@H]2[C@H](NC(=O)[C@H](N)c3ccccc3)C(=O)N2[C@H]1C(=O)O [Ampicillin, ampicillin] | 50 | 74 | > 256 µg/mL | 2 (≈ 5.72 µM) | > 256 | > 256 | 256 (≈ 733 µM) | – | – | – | – | – | – | – | – | – | – | MIC ([2]; Klebsiella pneumoniae, CKP1): > 256 µg/mL; MIC [4]: > 256 µg/mL; MIC (Escherichia coli 8295 [7]): 128 µg/mL (≈ 366 µM) |
| CO/N=C(\C(=O)N[C@@H]1C(=O)N2C(C(=O)O)=C(CSc3nc(=O)c(=O)[nH]n3C)CS[C@H]12)c1csc(N)n1 [Ceftriaxone, ceftriaxone] | 51 | 76 | – | 2 (≈ 3.61 µM) | – | – | 8 (≈ 14.4 µM) | 20 | 17 | 2 (≈ 3.61 µM) | 50 | 55 | 4 (≈ 7.21 µM) | > 256 | 2 (≈ 3.61 µM) | > 256 | 2 (≈ 3.61 µM) | Fold increase in AK signal ([10]; treatment 0.5×MIC): 2 fold; Fold increase in AK signal ([10]; treatment 1.0×MIC): 14 fold |
| NC[C@H]1O[C@H](O[C@H]2[C@H](O)[C@@H](O[C@H]3O[C@H](CO)[C@@H](O)[C@H](N)[C@H]3O)[C@H](N)C[C@@H]2N)[C@H](O)[C@@H](O)[C@@H]1O [Kanamycin, kanamycin] | 55 | 70 | – | 16 (≈ 33 µM) | > 256 | > 256 | 2 (≈ 4.13 µM) | 1 | 1 | 2 (≈ 4.13 µM) | 1 | 1 | 256 (≈ 528 µM) | – | 2 (≈ 4.13 µM) | – | 32 (≈ 66 µM) | – |
| Cc1cc(NS(=O)(=O)c2ccc(N)cc2)no1 [Sulfamethoxazole, sulfamethoxazole] | – | – | – | 2 (≈ 7.9 µM) | – | – | 8 (≈ 31.6 µM) | – | – | > 256 | – | – | 256 (≈ 1010 µM) | > 256 | > 256 | > 256 | > 256 | fold induction at 50 µM (E. faecium; 384-well format): 1; fold induction at 50 µM (P. aeruginosa; 384-well format): 0.7; fold induction at 50 µM (K. pneumoniae; 384-well format): 0.6; fold induction at 50 µM (E. cloacae; 384-well format): 0.7; fold induction at 50 µM (E. coli; 384-well format): 0.7; fold induction at 50 µM ([11]; 384-well format): 0.7; fold induction at 50 µM ([12]; 384-well format): 1.3 |
| CCCCCCCCNC(C)C(O)c1ccc(SC(C)C)cc1 (centres unmarked) [Suloctidil, suloctidil, reference compound] | – | – | did not elicit an antimicrobial response | – | – | – | – | – | – | – | – | – | – | – | – | 8 (≈ 23.7 µM) | – | fold induction at 50 µM (E. faecium; planktonic E. faecium): 5.4; activity in primary and confirmatory AK screens (P. aeruginosa; P. aeruginosa, 50 μM, cutoff 3-fold increase in AK): active; fold induction at 50 µM (P. aeruginosa; planktonic P. aeruginosa): 6.8; fold induction at 50 µM (K. pneumoniae; planktonic K. pneumoniae): 2.5; fold induction at 50 µM (E. cloacae; planktonic E. cloacae): 0.9; fold induction at 50 µM (E. coli; planktonic E. coli): 1.9; fold induction at 50 µM ([11]; planktonic S. aureus): 2; fold induction at 50 µM ([12]; planktonic A. baumannii): 4.1 |
